Values quoted from earlier work, collected in US20260272907A1, “Therapeutic Tyrosine Kinase Inhibitors for Multiple Sclerosis” (Principia Biopharma Inc., priority 2022, published 2026).

Tested on: RMS patients
Conditions: from Week 12; cited from earlier work

Question: Which “Reduction of new Gd-enhancing T1 lesions” value does the source give for `C=CC(=O)N1CCC(CNc2ncnc(N)c2-c2ccc(Oc3ccccc3)cc2)CC1` [evobrutinib] here?
Answer: meaningful reduction
